Data on 6 compounds can be found in US6939892B2, “Compositions for treating or preventing malaria and method of treating malaria” (Zaidan Hojin Biseibutsu Kagaku Kenkyu Kai, priority 2000, dated 2005).

One series relates to Plasmodium falciparum. Briefly: In vitro test of inhibitory activity against proliferation of malarial parasites in human red blood cells. The following applies: for Selective toxicity: ratio of EC50 for the F28-7 cell line to EC50 for the malarial parasite (P. falciparum FCR-3 strain); for Rate (%) of proliferation of malarial parasite: 72 hours. Type of series: cell-based. The protocol:
In this test Example, two strains of Plasmodium falciparum, namely strain FCR-3 (ATCC 30932) and strain Honduras-1 (ATCC 30950) were used as the malarial parasites to be tested, and each malarial strain was incubated separately in vitro as described below. […] The resulting culture medium as supplemented with the human serum was then adjusted to have a hematocrit level (namely, a ratio of the total volume of the red blood cells to the volume of the liquid culture medium comprising the suspended red blood cells) of 5%, and thereafter the culture medium as adjusted was placed in individual wells of 24-well incubation microplates. The culture medium in each well was inoculated with Plasmodium falciparum under test. The initial rate (%) of infection of the red blood cells with the malarial parasite in individual wells was then adjusted to a value of 0.1% at the start of the incubation. Thereafter, there was carried out the incubation of the red blood cells along with the infecting Plasmodium falciparum. This incubation was effected at 36.5° C. in an atmosphere comprising 5.0% oxygen, 5.0% carbon dioxide and 90% nitrogen.
The culture medium present in each well was daily changed freshly. At the time when the rate (%) of infection of the red blood cells with the malarial parasite increased to reach a value of 4%, the transfer of the incubated cultures to another incubation microplates was conducted. Thus, the cultures of the malarial parasites under test were prepared.
By the way, the rate (%) of infection of the red blood cells with the malarial parasite as above-mentioned was evaluated by a procedure that comprised removing a sample from the culture of the parasitized red blood cells in each well, preparing thin blood film specimen containing the red blood cells from each sample, staining said thin blood film specimen by means of Giemsa staining or Diff-Qick staining method, counting the number of the stained red blood cells as infected with the malarial parasite per one thin blood film, under a microscope (oil immersion; 1,000×), and calculating the rate (%) of infection of the red blood cells with malarial parasite according to the undermentioned equation: [formula]
In turn, the abovementioned culture of the parasitized red blood cells as prepared in the above was subjected to a centrifugation to collect the red blood cells which had been infected with the malarial parasite. The infected red blood cells so collected were washed with an PRMI 1640 medium supplemented with the human serum, and then were added with such red blood cells which were not yet infected with the malarial parasite. Thus, there was prepared such a culture of the malarial parasite having infected the red blood cells, in which the initial rate (%) of infection of the red blood cells with the malarial parasite had firstly been adjusted to a value of 0.3%. The hematocrit level of this culture of the malarial parasite so prepared at this time point was 3%.
On the other hand, the compound to be tested in the present experiments was previously prepared in the form of a solution of each compound dissolved in a sterilized water, dimethylformamide (DMF) or dimethylsulfoxide (DMSO).
(i) The culture medium to be used for incubation of malarial parasite as above-mentioned was placed in individual wells of a multidish 24-wells. Then, for the treated test groups, each solution of the test compound as previously prepared in the above was added in an amount of 5 to 10 microliters (μl) into each well containing said culture medium therein. Then, the concentration of the test compound as added to the culture medium present in the individual wells of the multidish 24-well microplates was adjusted to different values in the individual wells. The test was carried out in duplicate or triplicate. On the other hand, for the control test groups (untreated), no test compound was added to each well, but instead thereof sterilized water, DMF or DMSO was added thereto in an amount of 10 μl.

Series [1] has as its system subclone F28-7 cells of FM3A cell line originating from a mouse mammary tumor. The series can be described thus: Toxicity of test compound against subclone F28-7 cells of FM3A cell line (cell proliferation). Type of series: cell-based. The following applies: for pEC50: Mus musculus, FM3A; for Rate (%) of proliferation of cells of the F28-7 cell line: 48 hours. The protocol:
Cells of subclone F28-7 cell line of a mouse mammary tumor, which is a wild type cell line of the FM3A cell line originating from a mouse mammary tumor, were used as the test cells. The culture medium to be used for cultivation of the cells of the subclone F28-7 cell line was prepared by supplementing an ES medium with 2% of a heat-inactivated fetal bovine serum. The cultivation of the subclone F28-7 cell line under test was effected in this serum-supplemented ES medium at 37° C. in air containing 5% CO2.
After the pre-cultivation was effected, the cell density of cells of the subclone F28-7 cell line which had entered the logarithmic proliferation phase was adjusted to a level of 5×10^4 cells/ml by diluting the culture of the cells with a volume of the fresh culture medium. Thus, there was prepared a cell suspension of cells of the subclone F28-7 cell line as cultured.
For the solution of the test compound, there was used the same solution as that which was hereinbefore prepared in the test for the determination of the antimalarial activity of the test compound against the proliferation of malarial parasite.
The culture medium to be used for the cultivation of the subclone F28-7 cell line above mentioned was placed in the individual wells of a multidish 24-wells. Then, for the treated test groups, the solution of the test compound was added in an amount of 5˜10 microliters to the culture medium in each well of the incubation plate so as to adjust a final concentration of the test compound as added to be 1×10^−4 to 1×10^−6 M.
The test was carried out in duplicate or triplicate. On the other hand, for the control test groups (untreated), no test compound was added to each well, but instead thereof a sterilized water, DMF or DMSO was added to each well in an amount of 10 μl. Then, the cell suspension of cells of the subclone F28-7 cell line as already prepared in the above was dispensed in an amount of 990-995 μl to each well by pipetting. The pipetting was effected carefully and gently, so that the cells as added were evenly suspended in the culture medium in each well. Thereafter, the cells of subclone F28-7 cell line were incubated for 48 hours under the aforesaid cultivating conditions. Then, the number of the cells of the subclone F28-7 cell line was counted by means of a microcell counter (CC-108, Toa Medical Electric Co.) for the cell culture as obtained in the individual wells of both the treated test groups and the control test (untreated) groups.
The inhibitory activity of the test compound against the proliferation of cells of the subclone F28-7 cell line was subsequently estimated from such value of the rate (%) of the proliferation of cells of the subclone F28-7 cell line which is defined by the undermentioned equation with reference to the counted number of cells of the subclone F28-7 cell line in the cell culture contained in each well and having been incubated in the presence of the test compound added for the treated test group, and with reference to the counted number of cells of the subclone F28-7 cell line having been incubated in the absence of the test compound for the control test group. The toxicity of the test compound was thus evaluated from the value of the rate (%) of proliferation of cells of the subclone F28-7 cell line so estimated. [formula]

Series [2] has as its system Plasmodium berghei NK65 strain. Briefly: In vivo test of antimalarial activity against malarial parasite in infected ICR mice. The following applies: ICR mice infected with P. berghei NK65, dose of 5 mg/kg, printed 'intravenous injection', once a day on Day 0 and Day 1, blood read on Day 4.
Description: As mice for this test, there were used ICR mice (male) of 5-weeks old with body weight of 26-31 g (five mice per group). As the source of the malarial infection for this experiment, murine malarial parasite, Plasmodium berghei NK65 strain was used.
Blood sample was drawn by cardiac puncture from each of the donor ICR mice which had been infected with Plasmodium berghei NK65 strain. […]
For sake of convenience, a time schedule was so set that the time of inoculating the test mice with the malarial parasite by intravenous injection of the cell suspension of the parasitized red blood cells was Day 0. […] For both of the untreated test group and the treated test group, the rate (%) of infection of the red blood cells with the malarial parasite in each of the mouse blood samples was evaluated. […] The rate (%) of inhibition against the proliferation of the malarial parasite used here indicates such value as calculated by the following equation: [formula] where A means the average rate (%) of infection of the red blood cells with the malarial parasite as effected in the untreated test group, and B means the average rate (%) of infection of the red blood cells with the malarial parasite as effected in the treated test group.
Series [3] can be described thus: Acute toxicity, intraperitoneal injection. Type of series: in vivo. To be noted: mouse, in vivo, ip; ICR mice, intraperitoneal administration, 14th day. As to the method:
(§1) SF2487 substance (Na salt) in the form of a solution dissolved in a physiological saline containing 10% DMSO was administered to ICR mice (5-weeks old, 3 mice per group) in different doses by intraperitoneal injection.

The next series concerns ICR mice. Briefly: Acute toxicity, intraperitoneal injection. Type of series: in vivo. The following applies: 14th day, 3 mice per group. The protocol:
as §1

The nature of a further series: Solubility in solvents. Type of series: physicochemical.
The mark [4] stands for this setting: read-out: EC50 values, namely molar concentrations of test compound for the 50% inhibition of proliferation, P. falciparum FCR-3 strain, 72 hours incubation.
The mark [5] stands for this setting: read-out: EC50 values, namely molar concentrations of test compound for the 50% inhibition of proliferation, the F28-7 cell line, F28-7 cell line, 48 hours incubation.
The mark [6] stands for this setting: 1 × 10^−7 Molar test compound in culture medium.
Where [7] appears, read: 48 h, read-out: EC50 values, namely molar concentrations of test compound for the 50% inhibition of proliferation, the F28-7 cell line.

Structures are written as SMILES. pEC50: −log10 of the molar value. Counter-ions that a name gives are not always drawn. Like-named read-outs stand apart in the source and are kept apart here. Bounds are passed on as bounds.

Regarding `OC(c1cc(C(F)(F)F)nc2c(C(F)(F)F)cccc12)C1CCCCN1` (stereo not drawn) [Mefloquine, reference compound], in the series on Plasmodium falciparum, the Selective toxicity worked out at 91. Moreover, the figures for the pEC50 (with Plasmodium falciparum (setting [4]); in series [1] (setting [5])) were 7.49 and 5.54, respectively.

For the compound `C[C@@H]1CC[C@H]2[C@@H](C)C(=O)O[C@@H]3O[C@@]4(C)CC[C@@H]1[C@]32OO4` [Artemisinin, reference compound], the pEC50 with Plasmodium falciparum (setting [4]) was 8.11; in series [1] (setting [5]), 5.00.

As to `C=C1OC(O)=C(C(=O)C(OC)C2C(/C=C(\CO)C3CCC(C)C(/C(C)=C/CC4OC(C)(C5CCC(C(O)CC)O5)CC4C)O3)CC(C)C(O)C2CO)C1=O` (stereo not drawn) [SF2487 substance Na salt], the “Rate (%) of proliferation of malarial parasite” value in the series on Plasmodium falciparum (setting [6]) was determined as 0%; in the series on Plasmodium falciparum (1 × 10^−8 Molar test compound in culture medium), 10%; with Plasmodium falciparum (1 × 10^−9 Molar test compound in culture medium), 60%; in the series on Plasmodium falciparum (1 × 10^−10 Molar test compound in culture medium), 100%; in the series with Plasmodium falciparum (3 × 10^−8 Molar test compound in culture medium), 5%; in the series with Plasmodium falciparum (3 × 10^−9 Molar test compound in culture medium), 40%. The “Rate (%) of proliferation of malarial parasite” value in the series on Plasmodium falciparum (3 × 10^−10 Molar test compound in culture medium) came to 100%; in the series with Plasmodium falciparum (7 × 10^−8 Molar test compound in culture medium), 0%; in the series on Plasmodium falciparum (7 × 10^−9 Molar test compound in culture medium), 25%; in the series on Plasmodium falciparum (7 × 10^−10 Molar test compound in culture medium), 85%. The pEC50 in the series on Plasmodium falciparum (Plasmodium falciparum, Erythrocyte, read-out: concentration necessary to inhibit the proliferation of malarial parasite by 50% (EC50)) is 8.70; in series [1] (setting [7]), 5.80; in series [1] (read-out: concentration necessary to inhibit the proliferation of cells of the F28-7 cell line by 50% (EC50)), 5.80. Moreover, in the series with Plasmodium falciparum, the Selective toxicity came out at 800. The “Rate (%) of proliferation of cells of the F28-7 cell line” value in series [1] (1 × 10^−5 Molar test compound in culture medium) stood at 0%; in series [1] (1 × 10^−6 Molar test compound in culture medium), 58%; in series [1] (setting [6]) it was 100%; in series [1] (3 + 10^−5 Molar test compound in culture medium), 0%; in series [1] (3 × 10^−6 Molar test compound in culture medium) it was 45%; in series [1] (3 × 10^−7 Molar test compound in culture medium), 100%. The “Rate (%) of proliferation of cells of the F28-7 cell line” value in series [1] (7 × 10^−6 Molar test compound in culture medium) worked out at 10%; in series [1] (7 × 10^−7 Molar test compound in culture medium) it was 70%. In addition, in series [2], the “rate (%) of inhibition against the proliferation of the malarial parasite” value was 80%. For the same compound, in series [3], the LD50 at 14 days is at least 25 mg/kg. The mortality entry is “all three mice survived” with ICR mice (12.5 mg/kg intraperitoneal injection) and “one mouse died among three mice” in the series with ICR mice (25 mg/kg intraperitoneal injection). Further, the solubility result is “soluble” in the series “Solubility in solvents” (in chloroform, ethyl acetate and dimethylsulfoxide); “slightly soluble” in “Solubility in solvents” (in ethanol); “hardly soluble” in “Solubility in solvents” (in water).

Consider `CCc1nc(N)nc(N)c1-c1ccc(Cl)cc1` [Pyrimethamine, reference compound], for which the Selective toxicity with Plasmodium falciparum was 120. The pEC50 is 9.00 in the series on Plasmodium falciparum (setting [4]) and 6.92 in series [1] (setting [5]).

In the case of `C=C[C@H]1C[N@@]2CC[C@H]1C[C@H]2[C@H](O)c1ccnc2ccc(OC)cc12` [Quinine, reference compound], the Selective toxicity in the series on Plasmodium falciparum is reported as 910. Further, the pEC50 was 6.96 in the series with Plasmodium falciparum (setting [4]) and 4.00 in series [1] (setting [5]).

On to `CCN(CC)CCCC(C)Nc1ccnc2cc(Cl)ccc12` (stereo not drawn) [Chloroquine, reference compound], for which the values for the pEC50 (in the series with Plasmodium falciparum (setting [4]); in series [1] (setting [7])) were 7.74 and 4.49, respectively.
